# Measurements reported in US10857193B2, “Extract formulation of Opuntia ficus indica” (FINZELBERG GMBH & CO. KG, priority 2007, dated 2020).
# Test system: blood glucose
# Test: Oral glucose tolerance test (oGTT), hypoglycaemic effect in an animal model
# Format: in vivo, Wistar rats
# Conditions: oGTT in rats, result in words; FIG. 3 expressed as percent AUC vs control, n=5-6 per group
# Method: A standard means of testing extracts or novel chemical compounds for effects on blood sugar levels is the oGTT (Verspohl, 2002). This involves administering the extract, a blind control or a known anti-diabetic to different groups of a rat population and administering an […] dose of glucose to a sub-group of each group. The extracts were administered 30 minutes before the glucose. Blood samples were taken sublingually 0, 15, 30, 60 and 120 minutes after glucose administration or at 0, 30, 60, 120 and 180 minutes for baseline blood sugar levels. The sampling schedule described served both to track the effect of the extracts on baseline blood sugar levels over a longer period and to track the effect on blood sugar levels following a glucose load.
# All of the tested extracts, the blind control and the glibenclamide reference oral anti-diabetic contained propylene glycol as a solubilising agent and were administered orally via a feeding tube. […]
# The samples were centrifuged at 8600 U/min for 10 minutes. The plasma supernatant was then analysed using an autoanalyser (Merck, Darmstadt). […]
# Concentrations and kinetic data were analysed in Graphpad 4.0 (San Diego, USA) using one-way variance analysis (ANOVA) and the Newman-Keuls multiple comparison test. The area under the curve (AUC) was determined using the trapezoidal method without extrapolation beyond the final sampling point.
structure (smiles),measurement,value
"COc1ccc(Cl)cc1C(=O)NCCc1ccc(S(=O)(=O)NC(=O)NC2CCCCC2)cc1 [glibenclamide, Glibenclamide]",hypoglycaemic effect,hypoglycaemic effect
